Earlier results in patent publication US9872927B2, “Dye solution” (FLUORON GMBH, priority 2008, dated 2018).

How the values were obtained:
[1] = dye of U.S. Pat. No. 7,014,991

Compound | concentration in water tolerated by eukaryotes (eukaryotes) [%] | irritation in the area of application (eukaryotes) | cytotoxicity [1]
[2H]O[2H] [Heavy water, D2O] | ≤ 20 | does not lead to any irritation | 
O=C1/C(=C2\Nc3ccc(S(=O)(=O)O)cc3C2=O)Nc2ccc(S(=O)(=O)O)cc21 [indigotindisulfonate] |  |  | cytotoxic
